According to patent US20250073251A1, “COMPOSITIONS AND METHODS AND USES THEREOF” (Journey Medical Corporation, priority 2019, published 2025):
“And” between values parts separate entries of the source, which are not always exact repeats. Identical values can stand only once. Counter-ions that a name gives are not always drawn.

How the values were obtained:
[1] = system: moderate-to-severe acne vulgaris; settings: human, in vivo
[2] = Toxicokinetics after daily dermal application
Description: (§1) Bioanalytical Sample Collection Blood samples (approximately 2 mL) are collected from all surviving animals via the abdominal vena cava through the thoracic inlet for determination of the plasma concentrations of adapalene and minocycline (see Tables 5 and 6). The animals were not fasted prior to blood collection, with the exception of the intervals that coincided with fasting for clinical pathology collections.
(§2) Blood samples are collected in tubes containing K2EDTA and placed on wet ice and centrifuged under refrigerated conditions. The resulting plasma is divided into 3 aliquots (100 μL in Aliquot 1 [minocycline], 500 μL in Aliquot 2 [adapalene], and any remaining plasma in Aliquot 3) in pre-labeled cryovials. All aliquots are stored frozen at −60° C. to −90° C.
(§3) The TK parameters are determined for adapalene and minocycline from individual concentration-time data by the Testing Facility.

in vivo = settings: both, Göttingen, minipig, plasma, topical or ocular
Description: as §1, §2, §3

Structure (SMILES): COc1ccc(-c2ccc3cc(C(=O)O)ccc3c2)cc1C12CC3CC(CC(C3)C1)C2 [0.3% adapalene foam]
- AE Maximum Severity: Mild [1]: 14 (12.5%)
- AE Maximum Severity: Moderate [1]: 4 (3.6%)
- AE Maximum Severity: Severe [1]: 2 (1.8%)
- Abdominal pain [1]: 0 subjects (%)
- Acne, (%) of subjects [1]: (1.8%)
- Buming sensation [1]: 0 subjects (%)
- Burning and Stinging: None, subjects n (%) [1]: 82 (78.1%) and 97 (92.4%) and 89 (89.9%) and 105 (93.8%)
- Burning and Stinging: Severe, subjects n (%) [1]: 0
- Burning sensation [1]: 0 subjects (%)
- Constipation [1]: 0 subjects (%)
- Dehydration [1]: 0 subjects (%)
- Dermatitis contact [1]: 0 subjects (%)
- Diastolic Blood Pressure, Max [1]: 58, 98 mmHg and 56, 93 mmHg and 57, 94 mmHg and 48, 94 mmHg
- Diastolic Blood Pressure, Mean [1]: 73.1 mmHg and 72.8 mmHg and 72.1 mmHg
- Diastolic Blood Pressure, Median [1]: 72.0 mmHg
- Diastolic Blood Pressure, Min [1]: 58, 98 mmHg and 56, 93 mmHg and 57, 94 mmHg and 48, 94 mmHg
- Dryness: Mild, subjects n (%) [1]: 27 (24.1%) and 26 (24.8%) and 17 (17.2%)
- Dryness: None, subjects n (%) [1]: 82 (73.2%) and 75 (71.4%) and 77 (73.3%) and 81 (81.8%)
- Dryness: Severe, subjects n (%) [1]: 0
- Erythema: Mild, subjects n (%) [1]: 36 (32.1%) and 27 (25.7%) and 36 (34.3%) and 27 (27.3%)
- Erythema: None, subjects n (%) [1]: 51 (45.5%) and 55 (52.4%) and 58 (55.2%) and 62 (62.6%)
- Erythema: Severe, subjects n (%) [1]: 1 (0.9%) and 2 (1.9%) and 1 (1.0%)
- Heart Rate, Max [1]: 52, 100 beats/min and 52, 99 beats/min and 51, 99 beats/min and 52, 96 beats/min
- Heart Rate, Mean [1]: 75.9 beats/min and 76.1 beats/min and 75.7 beats/min and 74.1 beats/min
- Heart Rate, Median [1]: 73.0 beats/min and 77.0 beats/min and 76.0 beats/min
- Heart Rate, Min [1]: 52, 100 beats/min and 52, 99 beats/min and 51, 99 beats/min and 52, 96 beats/min
- Hyperaesthesia [1]: 0 subjects (%)
- Hyperpigmentation: Mild, subjects n (%) [1]: 20 (19.0%) and 19 (19.2%) and 31 (27.7%) and 22 (21.0%)
- Hyperpigmentation: Moderate, subjects n (%) [1]: 4 (3.8%) and 4 (4.0%) and 6 (5.4%)
- Hyperpigmentation: None, subjects n (%) [1]: 81 (77.1%) and 76 (76.8%) and 75 (67.0%) and 79 (75.2%)
- Hyperpigmentation: Severe, subjects n (%) [1]: 0
- Immune system disorders [1]: 0 subjects (%)
- Infectious mononucleosis [1]: 0 subjects (%)
- Itching: None, subjects n (%) [1]: 87 (77.7%) and 79 (75.2%) and 86 (81.9%) and 86 (86.9%)
- Ligament rupture [1]: 0 subjects (%)
- Metabolism and nutrition disorders [1]: 0 subjects (%)
- Nail discolouration [1]: 0 subjects (%)
- Nasopharyngitis [1]: 0 subjects (%)
- Nausea [1]: 0 subjects (%)
- Neoplasms benign, malignant and unspecified (incl cysts and polyps) [1]: 0 subjects (%)
- Number (%) of subjects withdrawn from study due to TEAE [1]: 3 (2.7%) subjects (%)
- Number (%) of subjects withdrawn from study due to treatment-related TEAE [1]: 3 (2.7%) subjects (%)
- Oropharyngeal pain [1]: 0 subjects (%)
- Otitis media acute [1]: 0 subjects (%)
- Pain [1]: 0 subjects (%)
- Pain of skin [1]: 0 subjects (%)
- Paranasal sinus discomfort [1]: 0 subjects (%)
- Pharyngitis streptococcal [1]: 0 subjects (%)
- Pyogenic granuloma [1]: 0 subjects (%)
- Rash, (%) of subjects [1]: (0.9%)
- Rhinorrhoea [1]: 0 subjects (%)
- Scaling: Mild, subjects n (%) [1]: 21 (18.8%) and 19 (18.1%) and 17 (16.2%) and 12 (12.1%)
- Scaling: Moderate, subjects n (%) [1]: 2 (1.8%) and 3 (2.9%) and 2 (1.9%) and 3 (3.0%)
- Scaling: None, subjects n (%) [1]: 89 (79.5%) and 83 (79.0%) and 86 (81.9%) and 84 (84.8%)
- Scaling: Severe, subjects n (%) [1]: 0
- Sciatica [1]: 0 subjects (%)
- Seasonal allergy [1]: 0 subjects (%)
- Serious AE [1]: 0
- Subjects reporting at least one treatment-related TEAE [1]: 10 (8.9%) subjects (%)
- Subjects with any TEAE leading to discontinuation of study drug [1]: 3 (2.7%)
- Subjects with at least one AE [1]: 20 (17.9%)
- Systolic Blood Pressure, Max [1]: 92, 150 mmHg and 96, 150 mmHg and 95, 152 mmHg and 92, 149 mmHg
- Systolic Blood Pressure, Mean [1]: 116.7 mmHg
- Systolic Blood Pressure, Min [1]: 92, 150 mmHg and 96, 150 mmHg and 95, 152 mmHg and 92, 149 mmHg
- TEAE: Abdominal pain [1]: 0
- TEAE: Acne [1]: 2 (1.8%)
- TEAE: Acute sinusitis [1]: 1 (0.9%)
- TEAE: Burning sensation [1]: 0
- TEAE: Burns first degree [1]: 1 (0.9%)
- TEAE: Constipation [1]: 0
- TEAE: Cough [1]: 1 (0.9%)
- TEAE: Dehydration [1]: 0
- TEAE: Dermatitis contact [1]: 0
- TEAE: Diarrhoea [1]: 1 (0.9%)
- TEAE: Dry skin [1]: 4 (3.6%)
- TEAE: Eczema [1]: 1 (0.9%)
- TEAE: Erythema of eyelid [1]: 1 (0.9%)
- TEAE: Eye disorders [1]: 3 (2.7%)
- TEAE: Eye irritation [1]: 2 (1.8%)
- TEAE: Facial bones fracture [1]: 1 (0.9%)
- TEAE: Gastrointestinal disorders [1]: 1 (0.9%)
- TEAE: General disorders and administration site conditions [1]: 1 (0.9%)
- TEAE: Headache [1]: 2 (1.8%)
- TEAE: Hordeolum [1]: 1 (0.9%)
- TEAE: Hyperaesthesia [1]: 0
- TEAE: Immune system disorders [1]: 0
- TEAE: Infections and infestations [1]: 8 (7.1%)
- TEAE: Infectious mononucleosis [1]: 0
- TEAE: Injury, poisoning and procedural complications [1]: 2 (1.8%)
- TEAE: Ligament rupture [1]: 0
- TEAE: Ligament sprain [1]: 1 (0.9%)
- TEAE: Metabolism and nutrition disorders [1]: 0
- TEAE: Nail discolouration [1]: 0
- TEAE: Nasopharyngitis [1]: 0
- TEAE: Nausea [1]: 0
- TEAE: Neoplasms benign, malignant and unspecified (incl cysts and polyps) [1]: 0
- TEAE: Nervous system disorders [1]: 2 (1.8%)
- TEAE: Oropharyngeal pain [1]: 0
- TEAE: Otitis media acute [1]: 0
- TEAE: Pain [1]: 0
- TEAE: Pain of skin [1]: 0
- TEAE: Pharyngitis [1]: 1 (0.9%)
- TEAE: Pharyngitis streptococcal [1]: 0
- TEAE: Pyogenic granuloma [1]: 0
- TEAE: Rash [1]: 2 (1.8%)
- TEAE: Respiratory, thoracic and mediastinal disorders [1]: 1 (0.9%)
- TEAE: Rhinorrhoea [1]: 0
- TEAE: Sciatica [1]: 0
- TEAE: Seasonal allergy [1]: 0
- TEAE: Sinusitis [1]: 1 (0.9%)
- TEAE: Skin discolouration [1]: 1 (0.9%)
- TEAE: Skin irritation [1]: 1 (0.9%)
- TEAE: Staphylococcal infection [1]: 1 (0.9%)
- TEAE: Toothache [1]: 0
- TEAE: Upper respiratory tract infection [1]: 1 (0.9%)
- TEAE: Viral upper respiratory tract infection [1]: 1 (0.9%)
- TEAE: Vomiting [1]: 0
- Toothache [1]: 0 subjects (%)
- Treatment-Related AE [1]: 10 (8.9%)
- Vomiting [1]: 0 subjects (%)
- Weight, Max [1]: 43.5, 163.3 kg and 43.5, 166.0 kg
- Weight, Mean [1]: 77.06 kg and 77.28 kg
- Weight, Median [1]: 71.10 kg and 71.50 kg
- Weight, Min [1]: 43.5, 163.3 kg and 43.5, 166.0 kg
- Withdrawal from Study, Primary Reason: Adverse Event, % of subjects [1]: 3 (2.7%)
- Withdrawal from Study, Primary Reason: Adverse Event, number of subjects [1]: 3 (2.7%)
- adverse events assessed as mild in severity [1]: 12.5%
- dry skin adverse event [1]: 3.6%
- overall tolerability (LSTA) scores compared to the other treatment groups [1]: lower
- subject discontinuations due to a treatment emergent adverse event [1]: 2.7%
- subjects with TEAEs that led to discontinuation of study drug [1]: 3 subjects
- subjects with severe (treatment related) TEAE [1]: 1.8%
- treatment emergent adverse events, frequency [1]: 8.9%
- TEAE: Skin and subcutaneous tissue disorders ([1]; sc): 10 (8.9%)

Structure (SMILES): COc1ccc(-c2ccc3cc(C(=O)O)ccc3c2)cc1C12CC3CC(CC(C3)C1)C2 [adapalene]
- mean Cmax and AUC0-24hr for adapalene versus dose ([2]; 0.25 to […] adapalene with […] minocycline, Day 91): approximately dose proportional
- systemic exposure, dependence on sex ([2]; Day 91): independent of sex
- Tmax ([2]; Group 3, adapalene […] alone, daily dermal, Day 91, minimum-maximum (median not reported)): (0-8) hr
- Tmax ([2]; Group 4, adapalene […] + minocycline […] FCD105 Foam, Day 1, minimum-maximum (median not reported)): (8-24) hr
- Tmax ([2]; Group 4, adapalene […] + minocycline […] FCD105 Foam, Day 91, minimum-maximum (median not reported)): (0-24) hr
- Tmax ([2]; Göttingen, minipig, plasma, topical or ocular, […], Tmax, Group 3, adapalene […] alone, daily dermal, Day 1, median): 24 h
- Tmax ([2]; Göttingen, minipig, plasma, topical or ocular, […], Tmax, Group 5, adapalene […] + minocycline […] FCD105 Foam, Day 1, median): 24 h
- Tmax ([2]; Göttingen, minipig, plasma, topical or ocular, […], Tmax, Group 5, adapalene […] + minocycline […] FCD105 Foam, Day 91, median): 1 h
- Tmax ([2]; Göttingen, minipig, plasma, topical or ocular, […], Tmax, Group 6, adapalene […] + minocycline […] FCD105 Foam, Day 1, median): 24 h
- Tmax ([2]; Göttingen, minipig, plasma, topical or ocular, […], Tmax, Group 6, adapalene […] + minocycline […] FCD105 Foam, Day 91, median): 1 h

Structure (SMILES): CN(C)c1ccc(O)c2c1C[C@H]1C[C@H]3[C@H](N(C)C)C(O)=C(C(N)=O)C(=O)[C@@]3(O)C(O)=C1C2=O [minocycline, minocycline hydrochloride]
- Cmax (in vivo): 17.4 ng/mL
- systemic exposure, dependence on sex ([2]; Day 91): independent of sex
- Tmax ([2]; Group 6, minocycline […] + adapalene […] FCD105 Foam, Day 1, minimum-maximum (median not reported)): (4-8) hr
- Tmax ([2]; Group 6, minocycline […] + adapalene […] FCD105 Foam, Day 91, minimum-maximum (median not reported)): (0-8) hr
- Tmax ([2]; Göttingen, minipig, plasma, topical or ocular, […], Tmax, Group 4, minocycline […] + adapalene […] FCD105 Foam, Day 1, median): 4 h
- Tmax ([2]; Göttingen, minipig, plasma, topical or ocular, […], Tmax, Group 4, minocycline […] + adapalene […] FCD105 Foam, Day 91, median): 2 h
- Tmax ([2]; Göttingen, minipig, plasma, topical or ocular, […], Tmax, Group 5, minocycline […] + adapalene […] FCD105 Foam, Day 1, median): 24 h
- Tmax ([2]; Göttingen, minipig, plasma, topical or ocular, […], Tmax, Group 5, minocycline […] + adapalene […] FCD105 Foam, Day 91, median): 2 h
